Test results reported in patent US9241998B2 (Board of Regents, The University of Texas System, priority 2007, dated 2016).
Peptide text beside a SMILES is read from it. * marks the point of attachment. Cbz = O=C(OCc1ccccc1)*; CH2F = FC*

Assays:
RSV infected PC-3 cells = assay: RSV induced apoptosis (TUNEL) with caspase inhibitors or neutralizing antibodies; type: cell-based, human; conditions: for decline in RSV induced apoptosis (TUNEL): PC-3 cells, 36 h post-infection, 15 μM optimal for caspase-3, -9, -8 inhibitors
Protocol: PC-3 cells were pre-treated with control inhibitor (Z-FA-FMK) or caspase-3 (Z-DQMD-FMK), -8 (Z-IETD-FMK), -9 (Z-LEHD-FMK), -3/7 (Z-DEVD-FMK) (Calbiochem) and -12 (Z-ATAD-FMK) (MBL) inhibitors for 1 h at 37° C. Caspase-3, -8, -9 and -3/7 inhibitors at 15 μM-60 μM were used, while the caspase-12 inhibitor was used at 50 μM-100 μM. […] The cells were then washed and the infection was continued for an additional 36 h in the presence of inhibitors, following which apoptosis analysis was performed by TUNEL assay. […] In some experiments, infection was performed in the presence of both neutralizing antibody and caspase-3 or -8 inhibitors. At 36 h post-infection, cells were assayed for apoptosis. PC-3 and RWPE cells were pre-treated with either SN50 peptide (30 μM) or control SN50M (50 μM) peptide (Calbiochem) for 2 h, followed by virus infection (in the presence of peptides) for 0 h-36 h, after which cells were analyzed for apoptosis.

A549 cells = assay: Interferon-γ+Fas antibody mediated apoptosis in A549 cells; type: cell-based, human
Source text: (§1) The extrinsic pathway to apoptosis is induced following engagement of death receptors (e.g., TNF-receptor and Fas) with cognate ligands (TNF and FasL), leading to the activation of caspase-8. The ER-stress pathway (12) activation leads to activation of caspase-12. Activation of both caspase-8 and caspase-12 results in caspase-3 activation and apoptosis. […] Similarly, blocking caspase-9 activity also led to significant inhibition (by 75%) in apoptosis. […] It is important to note that the caspase-8 inhibitor is active, since it reduced interferon-γ+Fas antibody mediated apoptosis (14) in A549 cells by 60%.

PC-3 cells = assay: Western blot of apoptosis proteins in RSV infected cells; type: cell-based, human
Protocol: Bcl-2, Bcl-xL, Bad, Bax antibodies were obtained from Cell Signaling, while caspase-3, PARP and GFP antibodies were from Santa Cruz. Heat shock protein-70 (Hsp70) (Santa Cruz) antibody was used as a loading control. Nuclear extracts prepared from infected cells were incubated with a ^32P-labeled NF-κB oligonucleotide probe and analyzed for EMSA as described previously.

[1] = system: human lung epithelial A549 cells; assay: RSV mediated apoptosis in A549 cells with caspase inhibitor; type: cell-based
Source text: as §1

Structure (SMILES)	decline in RSV induced apoptosis (TUNEL) (RSV infected PC-3 cells)	reduction of interferon-γ+Fas antibody mediated apoptosis (A549 cells) [%]	PARP cleavage in RSV infected cells treated with inhibitor (PC-3 cells)	inhibition of apoptosis in infected PC-3 cells at high concentration (RSV infected PC-3 cells; up to 100 μM)	inhibition of RSV mediated apoptosis [1] [%]
CC[C@H](C)[C@H](NC(=O)OCc1ccccc1)C(=O)N[C@@H](CCC(=O)OC)C(=O)N[C@H](C(=O)N[C@@H](CC(=O)OC)C(=O)CF)[C@@H](C)O [caspase-8 inhibitor, Z-IETD-FMK] (Cbz-IE(OMe)TD(OMe)-CH2F)	15%	60	–	–	–
COC(=O)C[C@H](NC(=O)[C@H](CCSC)NC(=O)[C@H](CCC(N)=O)NC(=O)[C@H](CC(=O)OC)NC(=O)OCc1ccccc1)C(=O)CF [caspase-3 inhibitor, Z-DQMD-FMK] (Cbz-D(OMe)QMD(OMe)-CH2F)	85%	–	prevented PARP cleavage	–	–
COC(=O)CC[C@H](NC(=O)[C@H](CC(C)C)NC(=O)OCc1ccccc1)C(=O)N[C@@H](Cc1cnc[nH]1)C(=O)N[C@@H](CC(=O)OC)C(=O)CF [caspase-9 inhibitor, Z-LEHD-FMK] (Cbz-LE(OMe)HD(OMe)-CH2F)	75%	–	–	–	–
C[C@H](NC(=O)OCc1ccccc1)C(=O)N[C@H](C(=O)N[C@@H](C)C(=O)N[C@@H](CC(=O)O)C(=O)CF)[C@@H](C)O [caspase-12 inhibitor, Z-ATAD-FMK] (Cbz-ATAD-CH2F)	did not alter apoptosis	–	–	failed to inhibit apoptosis	40
COC(=O)CC[C@H](NC(=O)[C@H](CC(=O)OC)NC(=O)OCc1ccccc1)C(=O)N[C@H](C(=O)N[C@@H](CC(=O)OC)C(=O)CF)C(C)C [Z-DEVD-FMK]	–	–	prevented PARP cleavage	–	–
